Source: PubChem BioAssay AID2060889 (Molecular Pharmacology Branch, DTP, NCI, 2025)

Test system: LG0567-F671-PDC complex spheroids viability
Experiment: Anticancer human tumor LG0567-F671-PDC patient-derived lung adenocarcinoma cell line growth inhibition [RAS]
Settings: for IC50: curve of first compound; for viability, T/C: stronger effect = lower value
How it was run: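 Tumour cells grown as complex spheroids with HUVEC endothelial cells and mesenchymal stem cells, treated with RAS pathway inhibitor combinations. Each agent spans half-log steps from near clinical Cmax, or 10 microM where Cmax is unknown.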

[1] = second compound 0.00316 µM, first compound 0.0316 µM
[2] = second compound 0.00316 µM, first compound 0.1 µM
[3] = second compound 0.01 µM, first compound 0.0316 µM
[4] = second compound 0.01 µM, first compound 0.1 µM
[5] = second compound 0.0316 µM, first compound 0.0316 µM
[6] = second compound 0.0316 µM, first compound 0.1 µM
[7] = second compound 0.1 µM, first compound 0.0316 µM
[8] = second compound 0.1 µM, first compound 0.1 µM
[9] = second compound 0.316 µM, first compound 0.0316 µM
[10] = second compound 0.316 µM, first compound 0.1 µM
[11] = second compound 1 µM, first compound 0.0316 µM
[12] = second compound 1 µM, first compound 0.1 µM
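Also: spheroids exposed to compound for seven days before readout.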
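For IC50 in this document: luminescence signal used as a proxy for viable cells.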

**Q.** `CC(C)NCC(C(=O)N1CCN(c2ncnc3c2C(C)CC3O)CC1)c1ccc(Cl)cc1` (centres undefined) + C=CC(=O)N1CCN(c2nc(OCC3CCCN3C)nc3c(F)c(-c4nc(N)cc(C)c4C(F)(F)F)c(Cl)cc23)C(C)C1 was tested. Which IC50 (second compound 0.00316 µM) did it give?
**A.** < 31.6 nM

**Q.** And the IC50 (second compound 0.01 µM)?
**A.** < 31.6 nM

**Q.** What about the IC50 (second compound 0.0316 µM) of the same compound?
**A.** < 31.6 nM

**Q.** What about the IC50 (second compound 0.1 µM) of the same compound?
**A.** < 31.6 nM

**Q.** What about the IC50 (second compound 0.316 µM) of the same compound?
**A.** < 31.6 nM

**Q.** And the IC50 (second compound 1 µM)?
**A.** < 31.6 nM

**Q.** And the viability, T/C [1]?
**A.** 16.6%

**Q.** What about the viability, T/C [2] of the same compound?
**A.** 18.9%

**Q.** What about the viability, T/C (second compound 0.00316 µM, first compound 0.316 µM) of the same compound?
**A.** 14.9%

**Q.** And the viability, T/C (second compound 0.00316 µM, first compound 1 µM)?
**A.** 10.8%

**Q.** What about the viability, T/C (second compound 0.00316 µM, first compound 3.16 µM) of the same compound?
**A.** 10.3%

**Q.** What about the viability, T/C (second compound 0.00316 µM, first compound 10 µM) of the same compound?
**A.** 9%

**Q.** What about the viability, T/C [3] of the same compound?
**A.** 17%

**Q.** What about the viability, T/C [4] of the same compound?
**A.** 11.4%

**Q.** What about the viability, T/C (second compound 0.01 µM, first compound 0.316 µM) of the same compound?
**A.** 10.8%

**Q.** What about the viability, T/C (second compound 0.01 µM, first compound 1 µM) of the same compound?
**A.** 9.98%

**Q.** What about the viability, T/C (second compound 0.01 µM, first compound 3.16 µM) of the same compound?
**A.** 8.68%

**Q.** And the viability, T/C (second compound 0.01 µM, first compound 10 µM)?
**A.** 8.55%

**Q.** And the viability, T/C [5]?
**A.** 13.8%

**Q.** And the viability, T/C [6]?
**A.** 13.7%

**Q.** And the viability, T/C (second compound 0.0316 µM, first compound 0.316 µM)?
**A.** 10.3%

**Q.** And the viability, T/C (second compound 0.0316 µM, first compound 1 µM)?
**A.** 8.15%

**Q.** And the viability, T/C (second compound 0.0316 µM, first compound 3.16 µM)?
**A.** 7.81%

**Q.** And the viability, T/C (second compound 0.0316 µM, first compound 10 µM)?
**A.** 7.64%

**Q.** What about the viability, T/C [7] of the same compound?
**A.** 12.6%

**Q.** What about the viability, T/C [8] of the same compound?
**A.** 13.6%

**Q.** And the viability, T/C (second compound 0.1 µM, first compound 0.316 µM)?
**A.** 11.4%

**Q.** What about the viability, T/C (second compound 0.1 µM, first compound 1 µM) of the same compound?
**A.** 8.66%

**Q.** And the viability, T/C (second compound 0.1 µM, first compound 3.16 µM)?
**A.** 8.46%

**Q.** And the viability, T/C (second compound 0.1 µM, first compound 10 µM)?
**A.** 7.32%

**Q.** What about the viability, T/C [9] of the same compound?
**A.** 14.9%

**Q.** What about the viability, T/C [10] of the same compound?
**A.** 11.9%

**Q.** And the viability, T/C (second compound 0.316 µM, first compound 0.316 µM)?
**A.** 11.5%

**Q.** And the viability, T/C (second compound 0.316 µM, first compound 1 µM)?
**A.** 9.81%

**Q.** What about the viability, T/C (second compound 0.316 µM, first compound 3.16 µM) of the same compound?
**A.** 9.16%

**Q.** And the viability, T/C (second compound 0.316 µM, first compound 10 µM)?
**A.** 7.21%

**Q.** What about the viability, T/C [11] of the same compound?
**A.** 15.6%

**Q.** And the viability, T/C [12]?
**A.** 11.9%

**Q.** And the viability, T/C (second compound 1 µM, first compound 0.316 µM)?
**A.** 12.7%

**Q.** What about the viability, T/C (second compound 1 µM, first compound 1 µM) of the same compound?
**A.** 9.59%

**Q.** And the viability, T/C (second compound 1 µM, first compound 3.16 µM)?
**A.** 10%

**Q.** And the viability, T/C (second compound 1 µM, first compound 10 µM)?
**A.** 9.16%

**Q.** For `CC(C)n1nc(-c2ccc3oc(N)nc3c2)c2c(N)ncnc21` + C=CC(=O)N1CCN(c2nc(OCC3CCCN3C)nc3c(F)c(-c4nc(N)cc(C)c4C(F)(F)F)c(Cl)cc23)C(C)C1, which IC50 (second compound 0.00316 µM) is on record?
**A.** < 0.316 nM

**Q.** What about the IC50 (second compound 0.01 µM) of the same compound?
**A.** < 0.316 nM

**Q.** And the IC50 (second compound 0.0316 µM)?
**A.** < 0.316 nM

**Q.** What about the IC50 (second compound 0.1 µM) of the same compound?
**A.** < 0.316 nM

**Q.** What about the IC50 (second compound 0.316 µM) of the same compound?
**A.** < 0.316 nM

**Q.** And the IC50 (second compound 1 µM)?
**A.** < 0.316 nM

**Q.** What about the viability, T/C (second compound 0.00316 µM, first compound 0.000316 µM) of the same compound?
**A.** 13.7%

**Q.** And the viability, T/C (second compound 0.00316 µM, first compound 0.001 µM)?
**A.** 17.2%

**Q.** And the viability, T/C (second compound 0.00316 µM, first compound 0.00316 µM)?
**A.** 11.4%

**Q.** What about the viability, T/C (second compound 0.00316 µM, first compound 0.01 µM) of the same compound?
**A.** 9.86%

**Q.** What about the viability, T/C [1] of the same compound?
**A.** 7.75%

**Q.** What about the viability, T/C [2] of the same compound?
**A.** 6.24%

**Q.** What about the viability, T/C (second compound 0.01 µM, first compound 0.000316 µM) of the same compound?
**A.** 12.6%

**Q.** And the viability, T/C (second compound 0.01 µM, first compound 0.001 µM)?
**A.** 10.8%

**Q.** And the viability, T/C (second compound 0.01 µM, first compound 0.00316 µM)?
**A.** 10.5%

**Q.** What about the viability, T/C (second compound 0.01 µM, first compound 0.01 µM) of the same compound?
**A.** 7.96%

**Q.** What about the viability, T/C [3] of the same compound?
**A.** 7.27%

**Q.** And the viability, T/C [4]?
**A.** 4.67%

**Q.** And the viability, T/C (second compound 0.0316 µM, first compound 0.000316 µM)?
**A.** 12.2%

**Q.** And the viability, T/C (second compound 0.0316 µM, first compound 0.001 µM)?
**A.** 11.5%

**Q.** And the viability, T/C (second compound 0.0316 µM, first compound 0.00316 µM)?
**A.** 9.25%

**Q.** What about the viability, T/C (second compound 0.0316 µM, first compound 0.01 µM) of the same compound?
**A.** 10.8%

**Q.** What about the viability, T/C [5] of the same compound?
**A.** 6.75%

**Q.** What about the viability, T/C [6] of the same compound?
**A.** 4.77%

**Q.** What about the viability, T/C (second compound 0.1 µM, first compound 0.000316 µM) of the same compound?
**A.** 11.1%

**Q.** What about the viability, T/C (second compound 0.1 µM, first compound 0.001 µM) of the same compound?
**A.** 10.7%

**Q.** And the viability, T/C (second compound 0.1 µM, first compound 0.00316 µM)?
**A.** 10.9%

**Q.** And the viability, T/C (second compound 0.1 µM, first compound 0.01 µM)?
**A.** 8.59%

**Q.** And the viability, T/C [7]?
**A.** 7.47%

**Q.** What about the viability, T/C [8] of the same compound?
**A.** 4.81%

**Q.** And the viability, T/C (second compound 0.316 µM, first compound 0.000316 µM)?
**A.** 11.6%

**Q.** What about the viability, T/C (second compound 0.316 µM, first compound 0.001 µM) of the same compound?
**A.** 10.8%

**Q.** And the viability, T/C (second compound 0.316 µM, first compound 0.00316 µM)?
**A.** 9.88%

**Q.** What about the viability, T/C (second compound 0.316 µM, first compound 0.01 µM) of the same compound?
**A.** 7.87%

**Q.** What about the viability, T/C [9] of the same compound?
**A.** 6.07%

**Q.** And the viability, T/C [10]?
**A.** 4.55%

**Q.** What about the viability, T/C (second compound 1 µM, first compound 0.000316 µM) of the same compound?
**A.** 14.2%

**Q.** And the viability, T/C (second compound 1 µM, first compound 0.001 µM)?
**A.** 11.4%

**Q.** And the viability, T/C (second compound 1 µM, first compound 0.00316 µM)?
**A.** 14.3%

**Q.** What about the viability, T/C (second compound 1 µM, first compound 0.01 µM) of the same compound?
**A.** 10.9%

**Q.** What about the viability, T/C [11] of the same compound?
**A.** 7.1%

**Q.** What about the viability, T/C [12] of the same compound?
**A.** 5.83%
